This passage reports TGI and GI50 results from PubChem BioAssay (NCI).

Values joined by “and” are separate entries in the source; they are usually repeats but may differ in a detail not shown here. Identical values can stand only once.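 Tested at 5 concentrations; 48 h exposure; 96-well plates; endpoints linearly interpolated, else capped at highest concentration. GI50: concentration for 50% inhibition of growth. At the TGI there is no net growth.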

Some test systems named below: CCRF-CEM leukemia; SF-268 CNS; NCI-H23 lung; LOX IMVI melanoma; ACHN renal; A498 renal; NCI-H460 lung; NCI-H522 lung; HT29 colon; HOP-62 NSCLC.
Common to all, as to test: inhibition of tumour cell growth, NCI panel, 48 h

`O=S(O)CCCCSSCCCCSSCCCCS(=O)O`: the TGI is 64.6 µM in the experiment on CCRF-CEM leukemia; greater than 100 µM in the experiment with SF-268 CNS; greater than 100 µM with NCI-H23 lung; greater than 100 µM with LOX IMVI melanoma; greater than 100 µM with ACHN renal; greater than 100 µM in the experiment on A498 renal. In addition, the TGI in the experiment with NCI-H460 lung was greater than 100 µM; with NCI-H522 lung it was 35.6 µM.
As to `COc1cc2c(/C=C3/C(=O)Nc4cccc(Cl)c43)c(Cl)n(Cc3ccccc3)c2cc1C`, the GI50 in the experiment with CCRF-CEM leukemia was 4.83 µM; in the experiment on SF-268 CNS, 13.1 µM; with NCI-H23 lung, 4.59 µM; in the experiment on LOX IMVI melanoma, 4.42 µM; in the experiment with ACHN renal, 3.58 µM; in the experiment with A498 renal, 0.528 µM. Moreover, the GI50 is 4.99 µM with HT29 colon, 5.46 µM in the experiment on NCI-H460 lung, 4.46 µM in the experiment on NCI-H522 lung and 9.73 µM in the experiment with HOP-62 NSCLC. In addition, the TGI in the experiment with CCRF-CEM leukemia was greater than 100 µM; in the experiment on SF-268 CNS, greater than 71.5 µM; with NCI-H23 lung, 15 µM; in the experiment with LOX IMVI melanoma, 23.7 µM; in the experiment on ACHN renal it was 33.3 µM; in the experiment with A498 renal, 9.03 µM. Moreover, the TGI with HT29 colon was greater than 100 µM; with NCI-H460 lung, greater than 56.3 µM; in the experiment with NCI-H522 lung, greater than 82.2 µM; in the experiment with HOP-62 NSCLC it was 53.9 µM.
For the compound `CCCCNC(=O)NS(=O)(=O)c1ccc(N2N=C(c3ccc(C)cc3C)CC2c2ccc(N(C)C)cc2)cc1` (stereo not given), the GI50 was 3.32 µM in the experiment with CCRF-CEM leukemia; 5.73 µM with SF-268 CNS; 4.92 µM with NCI-H23 lung; 4.4 µM with LOX IMVI melanoma; 3.93 µM in the experiment with ACHN renal; 3.9 µM in the experiment with A498 renal. For the same compound, the GI50 in the experiment with HT29 colon was 4.2 µM; with NCI-H460 lung, 3.33 µM; in the experiment on NCI-H522 lung it was 3.25 µM; with HOP-62 NSCLC it was 6.86 µM. The TGI with CCRF-CEM leukemia is 46.7 µM; with SF-268 CNS, greater than 100 µM; in the experiment on NCI-H23 lung it was greater than 100 µM; in the experiment with LOX IMVI melanoma it was 16.5 µM; with ACHN renal, greater than 100 µM; in the experiment with A498 renal, 25.9 µM. In addition, the TGI with HT29 colon is 19.9 µM; in the experiment with NCI-H460 lung, 15.9 µM; with NCI-H522 lung, 14.8 µM; in the experiment on HOP-62 NSCLC it was greater than 100 µM.
Regarding `NC(N)=NC(N)=Nc1cc2ccccc2c2ccccc12`, the GI50 in the experiment on CCRF-CEM leukemia was 8.61 µM; in the experiment on SF-268 CNS, 9.61 µM; in the experiment on NCI-H23 lung it was 12.3 µM; in the experiment on LOX IMVI melanoma it was 5.15 µM; with ACHN renal it was 5.07 µM; with A498 renal, 1.39 µM. For the same compound, the GI50 in the experiment on HT29 colon was 7.83 µM; with NCI-H460 lung, 5.13 µM; in the experiment with NCI-H522 lung it was 5.66 µM; with HOP-62 NSCLC, 8.53 µM. Besides, the TGI in the experiment with CCRF-CEM leukemia is 30.5 µM; in the experiment on SF-268 CNS it was 24.1 µM; with NCI-H23 lung it was 29.7 µM; in the experiment on LOX IMVI melanoma, 22 µM; in the experiment with ACHN renal it was 17.3 µM; in the experiment on A498 renal, 10.1 µM. The TGI in the experiment with HT29 colon turned out to be 23.6 µM; in the experiment on NCI-H460 lung it was 19.4 µM; in the experiment on NCI-H522 lung, 21.5 µM; in the experiment on HOP-62 NSCLC, 22.8 µM.
Consider `CCOC(=O)c1c(C)n(Cc2ccc(OC)cc2)c2c1cc(O)c1[nH]c3c(c12)CCCC3`, for which the GI50 is 4.22 µM in the experiment with CCRF-CEM leukemia; 3.47 µM in the experiment on SF-268 CNS; 1.9 µM in the experiment with NCI-H23 lung; 3.91 µM in the experiment on LOX IMVI melanoma; 6.72 µM in the experiment with ACHN renal; 21.3 µM in the experiment with A498 renal. Moreover, the GI50 was 12.9 µM in the experiment on HT29 colon, 8.63 µM with NCI-H460 lung, 1.75 µM in the experiment on NCI-H522 lung and 10.5 µM in the experiment with HOP-62 NSCLC. In addition, the TGI in the experiment on CCRF-CEM leukemia is greater than 100 µM; in the experiment on SF-268 CNS, 18.7 µM; with NCI-H23 lung, 13.3 µM; in the experiment on LOX IMVI melanoma, 16.6 µM; with ACHN renal, 35.6 µM; in the experiment with A498 renal, 60.6 µM. Moreover, the TGI in the experiment on HT29 colon is greater than 100 µM; in the experiment on NCI-H460 lung, 27.8 µM; with NCI-H522 lung it was 3.97 µM; in the experiment with HOP-62 NSCLC it was 24.9 µM.
Take `CC(C)CSc1nc(Nc2ccccc2)c(C#N)c(-c2ccc(F)cc2)n1`: the GI50 was 5.53 µM in the experiment on CCRF-CEM leukemia; 4.41 µM with SF-268 CNS; 6.35 µM with NCI-H23 lung; 2.98 µM in the experiment on LOX IMVI melanoma; 0.403 µM in the experiment on ACHN renal; 1.19 µM in the experiment with A498 renal. In addition, the GI50 was 14.5 µM with HT29 colon, 0.806 µM in the experiment on NCI-H460 lung, 14.4 µM in the experiment on NCI-H522 lung and 2.1 µM in the experiment with HOP-62 NSCLC. Moreover, the TGI in the experiment with CCRF-CEM leukemia is greater than 100 µM; with SF-268 CNS it was 22.7 µM; in the experiment on NCI-H23 lung, 28.7 µM; in the experiment with LOX IMVI melanoma, 21.4 µM; with ACHN renal, 1.47 µM; in the experiment with A498 renal, 6.13 µM. Further, the TGI in the experiment on HT29 colon was greater than 100 µM; in the experiment on NCI-H460 lung it was 12.1 µM; in the experiment on NCI-H522 lung, 71.4 µM; in the experiment with HOP-62 NSCLC, 12.9 µM.
Take `CC(=O)NC(CCCN)C(=O)NCc1ccccc1` (stereo not given): the TGI with CCRF-CEM leukemia, with SF-268 CNS, with NCI-H23 lung, in the experiment with LOX IMVI melanoma, in the experiment with ACHN renal and in the experiment on A498 renal was greater than 100 µM in each case. In addition, the TGI with HT29 colon, in the experiment on NCI-H460 lung, in the experiment with NCI-H522 lung and in the experiment on HOP-62 NSCLC was greater than 100 µM in each case.
As for `CCCCCCCCCCC(O)C1CCC(C2CCC(C(O)CCCCC(O)CCCCCC(O)CC3=CC(C)OC3=O)O2)O1` (stereo not given), the GI50 with CCRF-CEM leukemia is 1.58 µM; in the experiment with SF-268 CNS it was greater than 25 µM; in the experiment on NCI-H23 lung, 0.0144 µM; with LOX IMVI melanoma, 0.218 µM; in the experiment with ACHN renal, 1.59 µM; in the experiment with A498 renal, 5.27 µM. Besides, the GI50 with NCI-H460 lung was 10.7 µM; with HOP-62 NSCLC, 7.3 µM. The TGI was greater than 25 µM in the experiment with CCRF-CEM leukemia; greater than 25 µM with SF-268 CNS; greater than 25 µM with NCI-H23 lung; 2.6 µM and > 25 µM in the experiment with LOX IMVI melanoma; 7.79 µM and > 25 µM in the experiment on ACHN renal; greater than 25 µM in the experiment on A498 renal. The TGI with NCI-H460 lung, in the experiment with NCI-H522 lung and in the experiment on HOP-62 NSCLC was greater than 25 µM each time.
In the case of `COc1ccc(OC)c(/C=C/NC=O)c1`, the TGI in the experiment on CCRF-CEM leukemia, in the experiment on SF-268 CNS, with NCI-H23 lung, with LOX IMVI melanoma, in the experiment with ACHN renal and with A498 renal was greater than 100 µM in each case. The TGI in the experiment with HT29 colon, in the experiment on NCI-H460 lung, in the experiment on NCI-H522 lung and with HOP-62 NSCLC was greater than 100 µM each time.
